Here are results for one molecule from article PMC4669722, “Antitumour potential of BPT: a dual inhibitor of cdk4 and tubulin polymerization” (Cell Death & Disease, 2015).

For one assay, the target named is MEK1 (Homo sapiens, UniProt Q02750). Description: Kinase profiling (Millipore), MEK1. The class given is biochemical. How it is done:
(§1) The in vitro kinase assays for testing against Cdk4-cyclin D1, Cdk2-cyclin A, Cdk1-cyclin B1 and Cdk9-cyclin T1 were performed in-house. The methodology and results have been reported previously.[20], [30], [31], [32], [45] The kinase profiling for 58 representative kinases was carrried out commercially at Millipore Bioscience Division, Livingston, UK.

In a further assay the test system is NCI-H1299 cells. In words: Flow cytometric cell cycle analysis, NCI-H1299. The class given is cell-based, human. Particulars: NCI-H1299, IC50 concentration, 24 h. Here is the method:
(§2) The untreated (control) and treated (with test compounds) cells were harvested by trypsinization, washed once with PBS and then fixed in 70% chilled (−20 °C) ethanol for minimum 1 h. After the fixation step, cells were centrifuged for 5 min at 3000 × g at room temperature, and the pellet was suspended in PBS containing 50 μg/ml propidium iodide (Sigma-Aldrich, Dorset, UK; cat. no. P-4170) and 0.5 mg/ml DNase-free ribonuclease (Sigma-Aldrich; cat. no. R-5503). The cells were stained for 1 h in the dark at 4 °C. Cell cycle analysis was performed on the Beckman Coulter (Epics Altra) fluorescence-activated cell sorter (Beckman Coulter UK Ltd, Buckinghamshire, UK). To gate all the events that represent single cells, and not cell doublets or cell clumps, the following analyses were performed on the samples. Cytograms of propidium iodide fluorescence peak signal versus integrated fluorescence or the linear signal were plotted. All data points on the straight line were isolated in a single gate and the gated data was further used for plotting a histogram that represents a complete cell cycle. The total number of events was not allowed to exceed 200 events per s. Data acquisition was stopped after a minimum of 10 000 events had been collected.

The target in the next assay is PDGFR. Description: Kinase profiling (Millipore), PDGFR. The class given is biochemical. How it is done:
as §1

Assay [1] relates to NCI-H460 (NSCLC; p53+, pRb+). Description: Cell proliferation (MTT) assay, NCI-H460. The assay is classed as cell-based. The conditions noted are these: Homo sapiens, 48 h, read-out: IC50 cell growth inhibition, NCI-H460. How it is done:
(§3) All 10 human cancer cell lines were maintained at 37 °C in 5% CO2 in RPMI-1640 medium, supplemented with 10% foetal calf serum and 100 μg/ml normocin. The 10 cancer cell lines used for screening were all obtained from ATCC (Manassas, VA, USA); they were the NSCLC (a form of cancer that is resistant to chemotherapy) lines: NCI-H460 (pRb^+, p53^+), A549 (pRb^+, p53^+), Calu-1 (pRb^+, p53-null), NCI-H1299 (pRb^+, p53-null), NCI-H358 (pRb-null, p53-null); the colon cancer line LS174T (pRb^+, p53^+); the prostate cancer line PC-3 (pRb^+, p53-null); the pancreatic cancer line MiaPaca (pRb^+, p53-mutant). The genotypes within brackets indicate the status of the tumour suppressor proteins pRb and p53. The mouse embryonic normal hepatic cell line (BNL CL2) and its SV40 large T-antigen-transformed counterpart cell line (BNL SV A.8) were also purchased from ATCC. The large T-antigen inactivates the tumour suppressor proteins p53 and pRb. The detailed procedure of cell proliferation (MTT) assay and IC50 determination was described previously.[32]

The subject of the next assay is NCI-H460 tumours. In words: NCI-H460 xenograft efficacy in SCID mice. The assay is classed as in vivo. Particulars: 100 mpk intraperitoneal, 9 days. How it is done:
A group of 65 SCID (SCID strain-CBySmn.CB17-Prkdc^scid/J; The Jackson Laboratory; Stock no. 001803) female mice weighing 15–24 g and 6–8 weeks old were used. Human non-small-cell lung carcinoma, NCI-H460 (ATCC; cat. no. HTB-177) cells grown in RPMI-1640 medium supplemented with 10% FBS (Sigma-Aldrich). The cultured cells were injected subcutaneously into the dorsal side of SCID mice at a tune of 5.3 × 10^6 cells in 0.2 ml of suspension. When the tumour growth reached about 4–6 mm in diameter (about 6 days), the animals were randomly divided into eight groups, each containing 6 or 7 mice. The treatments were continued for 9 consecutive days intraperitoneally. Flavopiridol (2.5 mpk) was used as a positive control in this study. Tumour size was recorded at 2–5 day intervals. Tumour weight (mg) was estimated according to the formula for a prolate ellipsoid: (length (mm) × width (mm)^2) × 0.5) assuming specific gravity to be one and π to be 3. Tumour growth in compound treated animals is calculated as T/C (treated/control) × 100% and growth inhibition percent (% GI) was (100−% T/C).[48], [49], [50]

The test system of assay [2] is BNL SV A.8 (mouse embryonic SV40-transformed hepatic cells). In words: Flow cytometric cell cycle analysis, BNL SV A.8. The assay is classed as cell-based. Particulars: 48 h. How it is done: as §2
Background: A flow cytometer gives signals particle by particle.

The subject of assay [3] is BNL SV A.8 (mouse hepatic; SV40-mediated transformed cells). Description: Cell proliferation (MTT) assay, BNL SV A.8. The class given is cell-based. Here is the method: as §3
Another assay concerns MIAPaCa cells. In words: Western blot of cell cycle proteins in mutant p53 cells. The assay is classed as cell-based, human. Particulars: data not shown. How it is done: A549, LS174T and MiaPaCa cells were seeded in 25 cm^2 tissue culture flasks in the complete growth medium. […] Cells were harvested by trypsinization, washed in ice-cold PBS and then lysed in buffer (Sigma-Aldrich; cat. no. C-2978) containing protease inhibitor cocktail (Sigma-Aldrich; cat. no. P8340). The lysates were centrifuged at 14 000 r.p.m. (revolutions per minute) for 10 min at 4 °C and the total protein concentrations were estimated in the clear supernatants using the Bradford method. Equal amounts of protein (40 μg) were loaded and electrophoresed on 10% SDS-polyacrylamide gels and blotted on Immobilon-P Transfer Membrane (Millipore; cat. no.IPVH20200). The blots were probed with respective primary antibodies (at 4 °C, overnight) at the following dilutions: cdc2 (New England Biolabs, Hitchin, UK; cat. no. 9110) at 1 : 1000 to detect Cdk1; cyclin B1 (CRUK, London, UK; cat. no. V152) at 1 : 1500 dilution to detect cyclin B1; Pab 1801 (Santa Cruz Biotechnology, Heidelberg, Germany; cat. no. sc-98) at 1 : 500 dilution to detect p53; N-20 (Santa Cruz Biotechnology; cat. no. sc-469) at 1 : 500 dilution to detect p21; C-19 (Santa Cruz Biotechnology; cat. no. sc-528) at 1 : 250 dilution to detect p27; AC-40 (Sigma-Aldrich; cat. no. A4700) at 1 : 2000 dilution to detect actin. […]
On the technique in general: In western blotting, separated proteins are transferred to a membrane and probed.

Where [4] appears, read: BNL SV A.8, concentration used in long-term survival assay (Fig. S3).

Read-outs that look alike come from different tables or passages of the source. Some results are limits rather than exact numbers.

Sequence of MEK1 (Q02750 whole entry): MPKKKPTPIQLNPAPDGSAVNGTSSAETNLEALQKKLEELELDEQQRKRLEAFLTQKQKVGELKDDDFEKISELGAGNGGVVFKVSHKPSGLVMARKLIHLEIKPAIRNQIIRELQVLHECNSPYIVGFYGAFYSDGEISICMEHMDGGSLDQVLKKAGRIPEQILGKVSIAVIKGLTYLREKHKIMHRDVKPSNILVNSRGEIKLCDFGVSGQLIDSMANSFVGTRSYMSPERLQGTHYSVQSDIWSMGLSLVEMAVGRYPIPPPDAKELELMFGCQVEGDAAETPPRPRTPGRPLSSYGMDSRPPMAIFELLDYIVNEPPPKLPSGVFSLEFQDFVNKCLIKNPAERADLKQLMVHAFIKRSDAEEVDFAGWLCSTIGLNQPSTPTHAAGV

As to `O=C(c1ccccc1-c1ccccc1)N1CCc2c([nH]c3ccccc23)C1` [BPT, 2-(biphenyl-2-carbonyl)-2,3,4,9-tetrahydro-1H-pyrido[3,4-b]indole], the IC50 – broadly, the concentration that gives 50% inhibition – was greater than 10000 nM on MEK1; greater than 10000 nM against PDGFR; 600 nM in assay [1]; 750 nM in assay [3] (Mus musculus, 48 h, MTT, read-out: IC50 cell growth inhibition, BNL SV A.8); 600 nM in assay [3] (Mus musculus, BNL SV A.8, concentration used in long-term survival assay (Fig. S3), read-out: IC50). Besides, in the assay with NCI-H1299 cells, the “cells in G2/M” value came out at 50%. For the same molecule, in the assay on NCI-H460 tumours, the antitumour efficacy result is given as “high efficacy”. The “cells in Sub G1 (apoptosis)” value was 43% in assay [2] (BNL SV A.8, IC50 concentration) and 51% in assay [2] (BNL SV A.8, IC70 concentration). The IC30 (in general, the concentration needed for an effect of 30%) in assay [3] (setting [4]) was 400 nM. Further, the IC70 – broadly, the point of the concentration-response curve where the effect stands at 70% – in assay [3] (setting [4]) came out at 900 nM. The 20% effect level in assay [3] (Mus musculus, BNL SV A.8, concentration used in long-term survival assay (Fig. S3)) (IC20) was put at 250 nM. Moreover, in the assay with MIAPaCa cells, the “cyclin B1 and Cdk1 levels” value was “elevated”. In addition, the “p53, p21 and p27 levels” value in the assay with MIAPaCa cells is listed as “remained unchanged”.
